Test results: US6576622B1, “Drug combination for the treatment of viral diseases” (University of Medicine & Dentistry of New Jersey, priority 1995, dated 2003)

Experiments:
[1] = MTT cytotoxicity assay in R116 cells; type: cell-based; details: human, R116 cell line, three days, FIG. 8, read-out: ED50 (cytotoxicity)
Experimental: Three days later, drug cytotoxicity was quantitated with a standard MTT assay in which the uptake and metabolism of 3-[4,5-dimethylthiazol-2-yl]2,5-dephenyltetrazolium bromide (MTT) by cells was measured (14). The amount of formazan produced in 2 hours was determined by dissolving the product in 100% DMSO and then measuring the absorbance at 570 nm.
HeLa-T4 is the parental cell line.
Cells sensitive, parental HT4 (open circle), S1 (solid square), Spool (solid circle) and refractory, R116 (open square) were grown in the presence of various concentrations of FUdR. Three days latter, cell viability was determined by the MTT reduction method.

[2] = system: HIV-1 IIIB; assay: HIV-1 IIIB infection of Jurkat JE6.1 cell populations, AZT IC50 with FUdR (RT activity); type: cell-based; details: in all of these studies
Experimental: HIV-1 production in infected, cultures was determined by a ^32P-based assay as described (34). RT activity was determined by […] of ^32P bound to the DE81 paper by using a Molecular Dynamics phosphorimager. The results are reported as pixel units per microliter of the reaction mixture.
In these experiments, three populations of cells were studied.

[3] = in vitro; details: human
[4] = system: HIV-LacZ; type: cell-based
[5] = system: HIV-gpt; details: in the presence of TIBO R82150; earlier study (26); cited from earlier work
[6] = system: HIV-gpt; assay: HIV-gpt colony formation after infection of HeLa-T4 cells in the presence of antiretroviral agents; type: cell-based; details: HeLa-T4; plasmid derived HIV-gpt (COS cells); AZT 10 μM, DDI 50 μM, D4T 50 μM; no drug control 8800

Compound	EC50 at 3 days [1] [µM]	antiviral activity when used by itself [2]	EC50 at 3 days [3] [µM]	selection of cells “persistently resistant” to the antiretroviral effects of the drug ([4]; HeLa-T4, identical techniques as for nucleoside analogs)	Number of “persistently resistance” colonies ([4]; colonies from HIV-gpt infection of HeLa-T4 in presence of drug, resistant/tested)	Frequency ([4]; frequency of persistently resistant colonies, HeLa-T4, plasmid derived HIV-gpt)	prevalence of infection with COS-cell derived virus versus HIV-gpt rescued by replication-competent virus [5]	Number of colonies [6]
O=c1[nH]c(=O)n([C@H]2C[C@H](O)[C@@H](CO)O2)cc1F [FUdR, 2′-deoxy-5-fluorouridine]	0.7	moderate antiviral activity	7					
CC(C)=CCN1Cc2cccc3[nH]c(=S)n(c23)C[C@@H]1C [TIBO]				no cells “persistently resistant”	0/3	0	twenty fold lower	3
